Results as given in the supplement of paper PMC10307832.

Assays:
Assay in all cases: relative viability (nuclei count vs DMSO), 5 days (fraction); higher = more cells survive
[1] = compound: CC(C)=CC[C@@H](O)C1=CC(=O)c2c(O)ccc(O)c2C1=O [Shikonin] + Cc1nc(Nc2ncc(C(=O)Nc3c(C)cccc3Cl)s2)cc(N2CCN(CCO)CC2)n1 [Dasatinib] (partner 0.075 µM)
Summary of the method: (§1)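 For relative viability, nuclei counts in treated wells were divided by those in vehicle wells. Lung cancer cell lines had been pin-tool dosed in 1536-well plates the day after seeding and cultured for 5 days, then fixed and stained in one step (final 0.05% Triton X-100, 1% formaldehyde, 1 ug/ml Hoechst) and imaged at 4×. Doses were one drug alone or a fixed anchor-drug dose plus five library-drug doses (not always all listed) in √10 steps, and values are duplicate-plate medians.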

[2] = compound: CC(C)N(CCCNC(=O)Nc1ccc(C(C)(C)C)cc1)C[C@H]1O[C@@H](n2ccc3c(N)ncnc32)[C@H](O)[C@@H]1O + CC(=O)Nc1cccc(-n2c(=O)n(C3CC3)c(=O)c3c(Nc4ccc(I)cc4F)n(C)c(=O)c(C)c32)c1 [Trametinib] (partner 0.02 µM)
Summary of the method: as §1

[3] = compound: CC(C)=CC[C@@H](O)C1=CC(=O)c2c(O)ccc(O)c2C1=O [Shikonin] + CC(C)C[C@H](NC(=O)[C@H](Cc1ccccc1)NC(=O)c1cnccn1)B(O)O [Bortezomib] (partner 0.002 µM)
Summary of the method: as §1

[4] = compound: CC(C)N(CCCNC(=O)Nc1ccc(C(C)(C)C)cc1)C[C@H]1O[C@@H](n2ccc3c(N)ncnc32)[C@H](O)[C@@H]1O + COc1cc2c(Oc3ccc(NC(=O)C4(C(=O)Nc5ccc(F)cc5)CC4)cc3F)ccnc2cc1OCCCN1CCOCC1 [Foretinib] (partner 0.25 µM)
Summary of the method: as §1

| Cell Line | relative viability ([1]; first compound 0.01 µM) | relative viability ([1]; first compound 0.1 µM) | relative viability ([1]; first compound 0.3162 µM) | relative viability ([1]; first compound 1 µM) | relative viability ([2]; first compound 0.08 µM) | relative viability ([2]; first compound 0.253 µM) | relative viability ([2]; first compound 0.8 µM) | relative viability ([2]; first compound 2.53 µM) | relative viability ([2]; first compound 8 µM) | relative viability ([3]; first compound 0.01 µM) | relative viability ([3]; first compound 0.1 µM) | relative viability ([3]; first compound 0.3162 µM) | relative viability ([3]; first compound 1 µM) | relative viability ([4]; first compound 0.08 µM) | relative viability ([4]; first compound 0.253 µM) | relative viability ([4]; first compound 0.8 µM) | relative viability ([4]; first compound 2.53 µM) | relative viability ([4]; first compound 8 µM) |
| --- | --- | --- | --- | --- | --- | --- | --- | --- | --- | --- | --- | --- | --- | --- | --- | --- | --- | --- |
| EKVX | 0.554 | 0.442 | 0.5 | 0.618 | 0.392 | 0.339 | 0.376 | 0.359 | 0.327 | 0.995 | 1.81 | 1.28 | 1.18 | 0.787 | 0.793 | 0.804 | 0.801 | 0.665 |
| NCI-H1651 | 0.385 | 0.391 | 0.37 | 0.438 | 0.84 | 0.85 | 0.795 | 0.859 | 0.894 | 0.986 | 1.06 | 0.948 | 0.928 | 0.876 | 0.79 | 0.86 | 0.871 | 0.808 |
| NCI-H1993 | 0.537 | 0.489 | 0.645 | 0.361 | 0.609 |  | 0.569 | 0.471 | 0.486 |  | 1.19 | 1.09 | 1.03 | 0.755 |  |  | 0.796 | 0.784 |
| A-427 | 0.877 | 0.801 | 0.721 | 0.658 | 0.751 | 0.816 | 0.677 | 0.806 | 0.743 | 1.07 | 1.17 | 0.979 | 1.05 | 1.08 | 1.04 | 1.1 | 1.1 | 0.966 |
| NCI-H2405 | 0.206 | 0.235 | 0.256 | 0.256 | 0.669 | 0.591 | 0.598 | 0.765 | 0.644 | 0.963 | 0.974 | 1.01 | 1 | 1.02 | 1.07 | 1.04 | 1.12 | 1.03 |
| NCI-H1355 | 0.6 | 0.676 | 0.721 | 0.787 | 0.419 | 0.416 | 0.388 | 0.458 | 0.38 | 1.24 | 1.25 | 1.22 | 1.23 | 0.755 | 0.839 | 0.933 | 0.941 | 0.972 |
| SK-LU-1 | 0.164 | 0.191 | 0.182 | 0.186 | 0.567 | 0.469 | 0.513 | 0.501 | 0.428 | 1.14 | 0.984 | 1.34 | 1.58 | 0.904 | 0.919 | 0.898 | 0.911 | 0.754 |
| NCI-H23 | 0.643 | 0.883 | 0.78 | 0.944 | 0.336 |  | 0.361 | 0.547 | 0.373 | 1.11 | 0.953 | 1.13 | 1.13 | 0.891 | 0.964 | 1.02 | 0.937 | 0.945 |
| HOP-62 | 0.66 | 0.593 | 0.701 | 0.747 | 0.349 | 0.432 | 0.316 | 0.347 | 0.38 | 0.958 | 0.715 | 0.875 | 0.902 | 0.974 | 1.23 | 1.02 | 1.06 | 0.945 |
| HARA | 0.239 | 0.281 | 0.299 | 0.28 | 0.736 | 0.412 | 0.54 | 0.511 | 0.508 | 1.16 | 1.24 | 1.16 | 1.24 | 0.751 | 0.878 | 0.756 | 0.6 | 0.738 |
| PC-3 [JPC-3] | 1.11 | 0.968 | 1.1 | 0.958 | 0.664 | 0.722 |  | 0.715 | 0.683 | 0.824 | 0.894 | 0.837 | 0.868 | 1.05 | 1.15 | 0.96 | 1.05 | 0.936 |
| NCI-H1755 | 0.484 | 0.46 | 0.499 | 0.475 | 0.758 | 0.736 | 0.719 | 0.733 | 0.771 | 0.978 | 1.1 | 1.11 | 0.98 | 0.92 | 0.909 | 0.925 | 0.857 | 0.868 |
| HCC-78 | 0.39 | 0.464 | 0.363 | 0.417 | 0.716 | 0.867 | 0.804 | 0.586 | 0.736 | 0.572 | 0.474 | 0.607 | 0.552 | 0.509 | 0.497 | 0.5 | 0.524 | 0.602 |
| NCI-H441 | 0.632 | 0.466 | 0.631 | 0.675 | 0.407 | 0.432 |  | 0.498 | 0.474 | 0.581 | 0.666 | 0.549 | 0.603 | 1.01 | 0.913 |  | 0.801 | 0.968 |
| NCI-H322M | 0.237 | 0.271 | 0.261 | 0.27 | 0.5 | 0.533 | 0.544 | 0.475 | 0.517 | 1.14 | 1.32 | 1.26 | 1.33 | 0.904 | 0.894 | 0.94 | 1.02 | 1.06 |
| NCI-H520 | 0.294 | 0.218 | 0.2 | 0.189 | 0.681 | 0.513 | 0.599 | 0.667 | 0.695 |  | 0.699 | 0.48 | 0.689 | 0.685 | 0.878 | 0.644 | 0.817 | 0.704 |
| COR-L23 | 0.482 | 0.49 | 0.532 | 0.462 | 0.664 | 0.374 | 0.631 | 0.67 | 0.519 | 1.1 | 1.11 | 1.18 | 0.8 | 0.843 | 1.02 | 1.02 | 0.986 | 0.962 |
| NCI-H2126 | 0.599 | 0.595 | 0.656 | 0.685 | 0.551 | 0.572 | 0.555 | 0.577 | 0.58 | 1.16 | 1.23 | 1.1 | 1.19 | 1.18 | 1.04 | 1.16 | 1.13 | 1.2 |
